# Measured values taken from patent US7964731B2, “Isotopically marked quinoline derivatives as adenosin A3 receptor ligands” (Sanofi-Aventis, priority 2004, dated 2011).
# Columns and labels:
# [1] = target: T1, human adenosine A3 receptor (CHO-hA3 membrane preparation) (Homo sapiens, UniProt P0DMS8); experiment: Scatchard analysis of radioisotope saturation curves of the radioligand of Example 2/a; format: binding
# T1 sequence (P0DMS8 1-318): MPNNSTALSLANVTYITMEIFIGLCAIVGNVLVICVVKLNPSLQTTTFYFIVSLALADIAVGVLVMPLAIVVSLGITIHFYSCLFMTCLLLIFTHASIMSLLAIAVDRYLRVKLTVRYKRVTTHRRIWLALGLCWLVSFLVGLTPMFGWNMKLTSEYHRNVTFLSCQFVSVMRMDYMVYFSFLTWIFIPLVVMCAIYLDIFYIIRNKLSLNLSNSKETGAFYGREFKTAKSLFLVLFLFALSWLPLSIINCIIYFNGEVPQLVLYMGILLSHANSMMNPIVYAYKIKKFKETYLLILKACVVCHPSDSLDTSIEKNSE
# [2] = target: T2, human A3 receptors (CHO-hA3 membrane preparation) (Homo sapiens, UniProt P0DMS8); experiment: Human adenosine A3 receptor binding in the presence of [125I]AB-MECA
# T2 sequence (P0DMS8 1-318): T1 sequence (P0DMS8 1-318)
# [3] = target: T3, human A1 receptors (CHO-hA1 membrane preparation) (Homo sapiens, UniProt P30542); experiment: Human adenosine A1 receptor binding, [3H]CCPA; settings: 1 μM test compound, radioligand [3H]CCPA
# T3 sequence (P30542 1-326): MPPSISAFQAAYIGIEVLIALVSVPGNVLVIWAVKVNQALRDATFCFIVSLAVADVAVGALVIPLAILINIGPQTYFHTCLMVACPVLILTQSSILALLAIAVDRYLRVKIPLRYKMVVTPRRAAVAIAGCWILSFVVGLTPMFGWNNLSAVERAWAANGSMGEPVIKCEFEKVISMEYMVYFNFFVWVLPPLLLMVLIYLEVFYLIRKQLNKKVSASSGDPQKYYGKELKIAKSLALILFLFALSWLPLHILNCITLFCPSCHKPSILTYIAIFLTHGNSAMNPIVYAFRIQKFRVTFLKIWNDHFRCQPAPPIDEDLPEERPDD
# Method: Preparing membrane suspension: collect ovarium cells of cloned Chinese hamster expressing human A1 receptors (further: CHO-hA1), wash them three times with PBS, centrifuge (1000×g 10 min.) and homogenize (B.Braun Potter S) at 1500/min rotation speed. Buffer: 50 mM Tris HCl, pH 7,4. Centrifuge this homogenized mixture (43.000 g, 10 min), suspense the pellet in the above buffer with adjustment of the protein concentration to 5 mg/mL (Bradford method) and complete with 2 U/mL ADA. […] Filter over Whatman GF/B glass fibre filters (presoaked in 0.5% polyethylimine for 3 hours), wash 4× with 1 mL ice-cold 50 mM Tris HCl (pH 7.4) on 96-well Brandel Cell Harvester. Detection of activity: in 96-well plate in the presence of HiSafe-3 cocktail in beta-counter (1450 Microbeta, Wallac). Inhibition [%]=100−((activity in the presence of test compound−non-specific activity)/(total activity−non-specific activity))*100
# [4] = target: T4, human A2a adenosine receptors transfected into HEK-293 cells (Homo sapiens, UniProt P29274); experiment: Human adenosine A2a receptor binding, [3H]CGS-21680; settings: 1 μM test compound, radioligand [3H]CGS21680; read-out: Inhibition in 1 μM hA2A [3H]CGS21680
# T4 construct: purchased Receptor Biology, Inc; host or cells: HEK-293 cells (transfected), membranes
# Method: Human Adenosine A2a Receptor Binding
# Incubate 7 μg of membranes (human A2, adenosine receptors transfected into HEK-293 cells, source: Receptor Biology, Inc.), in the presence of the test compound and 20 nM [^3H]CGS-21680 (2-[p-(2-carbonylethyl)phenylethylamino]-5′-N-ethylcarboxamido-adenosine) (200.000 dpm) in incubation buffer (50 mM Tris HCl, 10 mM MgCl2, 1 mM EDTA, 2 U/mL adenosine deaminase, pH 7.4). The non-specific binding is defined in the presence of […] NECA (5′-N-ethylcarboxamido-adenosine) in a total volume of 100 μl for 90 min at room temperature. Filter in vacuum over Whatman GF/B glass fibre filters (presoaked for 3 hours in 0.5% polyethylimine), wash 4× with 1 mL ice-cold buffer (50 mM Tris HCl, 10 mM MgCl2, 1 mM EDTA, 0.9% NaCl, pH 7.4) on 96-well Brandel Cell Harvester. Detection of activity: in beta-counter (1450 Microbeta, Wallac) in the presence of 200 μL HiSafe-3 cocktail. Inhibition [%]=100−((activity in the presence of test compound−non-specific activity)/(total activity−non-specific activity))*100.
# [5] = target: T5, human A2b adenosine receptors transfected into HEK-293 cells (Homo sapiens, UniProt P29275); experiment: Human adenosine A2b receptor binding, [3H]DPCPX; settings: 1 μM test compound, radioligand [3H]DPCPX; read-out: Inhibition in 1 μM hA2B [3H]DPCPX
# T5 construct: purchased Receptor Biology, Inc; host or cells: HEK-293 cells (transfected), membranes
# T5 sequence (P29275 1-332): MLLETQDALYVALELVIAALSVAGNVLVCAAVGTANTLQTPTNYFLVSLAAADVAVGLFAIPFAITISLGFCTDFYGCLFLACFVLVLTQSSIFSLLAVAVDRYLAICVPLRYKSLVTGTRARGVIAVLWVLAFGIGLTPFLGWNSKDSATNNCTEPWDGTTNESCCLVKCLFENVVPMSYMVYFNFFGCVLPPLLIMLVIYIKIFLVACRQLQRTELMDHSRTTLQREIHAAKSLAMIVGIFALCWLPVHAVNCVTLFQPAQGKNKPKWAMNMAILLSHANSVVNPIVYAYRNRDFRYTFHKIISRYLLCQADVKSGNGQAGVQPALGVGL
# Method: Human Adenosine A2b Receptor Binding
# Binding protocol: incubate 20.8 μg of membranes (human A2b adenosine receptors transfected into HEK-293 cells, source: Receptor Biology, Inc.), in the presence of the test compound and 32.4 nM [^3H]DPCPX (8-cyclopenthyl-1,3-dipropylxanthine) (800.000 dpm) in incubation buffer (50 mM Tris-HCl, 10 mM MgCl2, 1 mM EDTA, 0.1 mM benzamidine, 2 U/mL adenosine deaminase, pH 6.5). The non-specific binding is defined in the presence of 100 μM NECA (5′-N-ethylcarboxamido-adenosine) in a total volume of 100 μL for 30 min at room temperature. Filter under 25 Hgmm vacuum over Whatman GF/C glass fibre filters (presoaked in 0.5% polyethylimine for 3 hours), wash 4× with 1 mL ice-cold 50 mM Tris HCl (pH 6.5) on 96-well Brandel Cell Harvester. Detection of activity: in beta-counter (1450 Microbeta, Wallac) in the presence of 200 μL of HiSafe-3 cocktail. Inhibition [%]=100−((activity in the presence of test compound−non-specific activity)/(total activity−non-specific activity))*100
# [6] = target: T2, human A3 receptors (CHO-hA3 membrane preparation); experiment: Human adenosine A3 receptor binding in the presence of the radioactive iodine-containing compound of Example 2/a; settings: radioligand of Example 2/a, 4 μg CHO-hA3 preparation, Cheng-Prusoff from IC50; read-out: Ki, the radioligand given in Example 2/a
# T4 sequence (P29274 whole entry): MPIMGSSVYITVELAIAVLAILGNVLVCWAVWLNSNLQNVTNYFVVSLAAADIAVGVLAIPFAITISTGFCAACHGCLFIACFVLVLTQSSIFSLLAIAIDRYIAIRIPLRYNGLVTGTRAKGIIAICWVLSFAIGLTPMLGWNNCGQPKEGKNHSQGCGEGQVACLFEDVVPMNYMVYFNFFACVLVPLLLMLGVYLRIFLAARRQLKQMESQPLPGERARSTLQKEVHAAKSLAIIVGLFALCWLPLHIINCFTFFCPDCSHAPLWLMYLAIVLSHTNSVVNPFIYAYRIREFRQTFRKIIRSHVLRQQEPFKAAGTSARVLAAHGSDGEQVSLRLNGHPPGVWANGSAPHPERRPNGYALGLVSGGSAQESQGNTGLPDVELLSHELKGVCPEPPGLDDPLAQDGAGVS
"selectivity for adenosine A3 receptor compared to the other adenosine receptor sub-types ([2]; A3 versus A1, A2a, A2b)","Ki ([2]; radioligand [125I]AB-MECA, CHO-hA3 membranes)",inhibition at 1 µM [3],inhibition at 1 µM [4],inhibition at 1 µM [5],Ki [6],SMILES,"Kd ([1]; 0.156 nM-10 nM radioligand, 4 μg protein CHO-hA3, read-out: dissociation constant (KD))",maximal binding capacity ([1]; 4 μg protein CHO-hA3)
,,,,,,"COc1ccc(C(=O)Nc2nc3ccc([125I])cc3c(NCc3cccs3)c2C#N)cc1 [Example 2/a, 4-Methoxy-N-(6-[^125I]iodo-4-[2-thienylmethylamino]-3-cyanoquinolin-2-yl)benzamide]",4 nM,985 femtomol/1 mg protein
at least thousand-fold selectivity,1.5 nM,4%,29%,-16%,1.3 nM,"COc1ccc(C(=O)Nc2nc3ccc(I)cc3c(NCc3cccs3)c2C#N)cc1 [The starting compound of Example 2/b, 4-Methoxy-N-(6-iodo-4-[2-thienylmethylamino]-3-cyanoquinolin-2-yl)benzamide]",,
